Measured values as given in patent US20250092044A1, “Kinase Inhibitors” (Incyte Corporation, priority 2023, published 2025).

Assays:
FLT3 [1] = molecular target: FLT3 (Homo sapiens (Human), UniProt P36888); assay: FLT3 Enzymatic Assay; assay type: biochemical; settings: 1 mM ATP
Description: (§1) The kinase assays were carried out at room temperature in assay buffer (HEPES 50 mM, pH 7.0, NaN3 0.02%, BSA 0.01%, Orthovanadate 0.1 mM, DTT 1 mM, MgCl2 10 mM) in a final volume of 10 μL. Testing compounds were prepared by serial dilution in DMSO and transferred to the plate wells by ECHO liquid handler (Labcyte) with 0.5% DMSO in the final assay. […]. Reactions were initiated by the addition of 5 μL ATP in assay buffer. The final 10 μL kinase reaction consists of 0.011 nM FLT3, 1 mM ATP, 500 nM TK Substrate-biotin and SEB reagent 62.5 nM in assay buffer. […] The plates were then sealed and centrifuged at 1800 rpm for 2 minutes. After 60 minutes incubation at room temperature, the product activity was determined by measuring the fluorescence at 620 nm and 665 nm on Pherastar microplate reader (BMG Labtech). A ratio is calculated (665/620 nm) for each well. Wells with DMSO only were served as the positive controls and wells containing no ATP were used as negative controls. IC50 determination was performed by fitting the curve of percent control activity versus the log of the compound concentration using the GraphPad Prism 7.0 software.

FLT3 [2] = assay: FLT3 Enzymatic Assay; assay type: biochemical
Description: as §1

[3] = system: STAT5 (Tyr694) phosphorylation in SET-2 cells; assay: STAT5 (Tyr694) Phosphorylation Cell Based Assay; settings: Homo sapiens, 2 hours, read-out: SET2 IC50
Description: SET-2 cells was purchased from DSMZ (Germany). RPMI1640 medium, Fetal Bovine Serum and 384-white sold flat-bottom small volume plate were purchased from Thermo Fisher Scientific (Waltham, MA). Phospho-STAT5 (Tyr694) HTRF kit was purchased from Perkin Elmer (Waltham, MA).
SET-2 cells were cultured in RPMI media with 20% FBS at 37° C. in humidified incubator supplied with 5% CO2. On the day of assay, the cells were centrifuged to remove the culture media and resuspended with prewarmed RPMI with 10% FBS. Testing compounds were prepared by serial dilution in DMSO and 50 nL/well test compounds were transferred to the 384 white low volume cell culture plate (Greiner Bio-one) by ECHO liquid handler (Labcyte). The cells were then dispensed with Multidrop (Thermo Fisher, Waltham, MA) at 10 μL/well (7×10^6 cells/mL) with 0.5% DMSO in the final assay. After the treated cells were incubated for 2 hours at 37° C./5% CO2 incubator, 4 μL/well supplemented lysis buffer (100× blocking buffer diluted 25 fold in 4× lysis buffer, Perkin Elmer) were added and incubated at room temperature for 90 min on orbital shaker at 600 rpm. Phospho-STAT5 Cryptate antibody and Phospho-STAT5 d2 antibody (1:1 vol/vol) were premixed and diluted 20 fold with in the detection buffer (Perkin Elmer). 4 μL of the premixed antibody solution were added to each well followed with 24 hours incubation at room temperature on orbital shaker at 600 rpm. The product activity was determined by measuring the fluorescence at 620 nm and 665 nm on Pherastar microplate reader (BMG Labtech). A ratio is calculated (665/620) for each well. Wells with DMSO only served as the positive controls and wells containing high concentration of control compound were used as negative controls. IC50 determination was performed by fitting the curve of percent control activity versus the log of the compound concentration using the GraphPad Prism 7.0 software.

[4] = molecular target: pseudo-kinase domain (JH2) of human V617F mutant JAK2 (Homo sapiens (Human), UniProt O60674, F794H/V617F/W659A/W777A); assay: JAK2 LanthaScreen JH2-V617F Binding Assay; settings: read-out: JH2 V617F Bind IC50
Sequence of pseudo-kinase domain (JH2) of human V617F mutant JAK2 (O60674 536-812 V617F/W659A/W777A/F794H): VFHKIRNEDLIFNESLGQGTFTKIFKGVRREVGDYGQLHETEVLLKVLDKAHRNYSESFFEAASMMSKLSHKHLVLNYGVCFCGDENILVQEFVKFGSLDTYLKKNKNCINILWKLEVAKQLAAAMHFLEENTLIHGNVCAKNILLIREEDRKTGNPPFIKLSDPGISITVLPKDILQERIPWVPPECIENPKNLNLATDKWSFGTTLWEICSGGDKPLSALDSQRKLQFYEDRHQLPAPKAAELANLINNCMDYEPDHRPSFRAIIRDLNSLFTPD
Description: JAK2 JH2-V617F binding assay utilizes pseudo-kinase domain (JH2, amino-acids 536-812 with 3 surface mutations W659A, W777A, F794H) of human V617F mutant JAK2 expressed as C-terminal His-Avi-tagged, biotinylated protein in a baculovirus expression system (BPS Bioscience, Catalog #79498). The assay was conducted in black 384-well polystyrene plates in a final reaction volume of 20 μL. JAK2 JH2-V617F (0.26 nM) was incubated with compounds (100 nL serially diluted in DMSO) in the presence of 50 nM Fluorescent JAK2-JH2 Tracer (MedChem Express Catalog #HY-102055) and 0.25 nM Streptavidin-Tb cryptate (Cisbio Part #610SATLB) in assay buffer (50 mM Tris, pH=7.5, 10 mM MgCl2, 0.01% Brij-35, 0.1% BSA, 1 mM EGTA, 5% Glycerol and 5 mM DTT). Non-specific binding was accessed in the presence of 2 mM ATP. After incubation for 1 hour at 25° C., LanthaScreen signals were read on a PHERAstar FS plate reader (BMG LABTECH). Data was analyzed with IDBS XLfit and GraphPad Prism 5.0 software using a four parameter dose response curve to determine IC50 for each compound.

[5] = molecular target: catalytic domain (JH1) of human JAK2 (Homo sapiens (Human), UniProt O60674); assay: JAK2 LanthaScreen JH1 Binding Assay; settings: read-out: JH1 Bind IC50
Sequence of catalytic domain (JH1) of human JAK2 (O60674 826-1132): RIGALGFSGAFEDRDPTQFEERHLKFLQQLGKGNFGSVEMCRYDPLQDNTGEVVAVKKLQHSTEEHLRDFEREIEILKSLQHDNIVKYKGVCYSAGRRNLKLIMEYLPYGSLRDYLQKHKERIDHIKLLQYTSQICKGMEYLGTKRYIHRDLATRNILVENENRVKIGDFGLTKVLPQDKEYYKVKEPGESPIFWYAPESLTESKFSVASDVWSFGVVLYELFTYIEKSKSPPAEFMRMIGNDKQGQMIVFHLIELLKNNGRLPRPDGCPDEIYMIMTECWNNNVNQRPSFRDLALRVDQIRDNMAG
Description: JAK2 JH1 binding assay utilizes catalytic domain (JH1, amino acids 826-1132) of human JAK2 expressed as N-terminal FLAG-tagged, biotinylated protein in a baculovirus expression system (Carna Biosciences, Product #08-445-20N). The assay was conducted in black 384-well polystyrene plates in a final reaction volume of 20 μL. JAK2 JH1 (1.5 nM) was incubated with compounds (100 nL serially diluted in DMSO) in the presence of 50 nM fluorescent JAK2-JH1 tracer and 0.5 nM Streptavidin-Tb cryptate (Cisbio Part #610SATLB) in assay buffer (50 mM Tris, pH=7.5, 10 mM MgCl2, 0.01% Brij-35, 0.1% BSA, 1 mM EGTA, 5% Glycerol and 5 mM DTT). Non-specific binding was accessed in the presence of 2 mM ATP. After incubation for 2 hours at 25° C., LanthaScreen signals were read on a PHERAstar FS plate reader (BMG LABTECH). Data was analyzed with IDBS XLfit and GraphPad Prism 5.0 software using a four parameter dose response curve to determine IC50 for each compound.

TRKA [6] = assay: TRKA Enzymatic Assay; assay type: biochemical
Description: (§2) The kinase assays were carried out at 24° C. temperature in assay buffer (HEPES 50 mM, pH 7.0, NaN3 0.02%, BSA 0.01%, Orthovanadate 0.1 mM, DTT 1 mM, MgCl2 10 mM) in a final volume of 10 μL. Testing compounds were prepared by serial dilution in DMSO and transferred to the plate wells by ECHO liquid handler (Labcyte) with 0.5% DMSO in the final assay. […]. Reactions were initiated by the addition of 5 μL ATP in assay buffer. The final 10 μL kinase reaction consisted of 0.58 nM TRKA, 1 mM ATP, 500 nM TK Substrate-biotin and SEB reagent 62.5 nM in assay buffer. […] After 60 minutes incubation at room temperature, the product activity was determined by measuring the fluorescence at 620 nm and 665 nm on Pherastar microplate reader (BMG Labtech). A ratio was calculated (665/620 nm) for each well. Wells with DMSO only served as the positive controls and wells containing no ATP were used as negative controls. IC50 determination was performed by fitting the curve of percent control activity versus the log of the compound concentration using the Gene data.

TRKA [7] = molecular target: TRKA (Homo sapiens (Human), UniProt P04629); assay: TRKA Enzymatic Assay; assay type: biochemical; settings: 1 mM ATP
Sequence of TRKA (Homo sapiens (Human), UniProt P04629) (P04629 33-796, species assumed): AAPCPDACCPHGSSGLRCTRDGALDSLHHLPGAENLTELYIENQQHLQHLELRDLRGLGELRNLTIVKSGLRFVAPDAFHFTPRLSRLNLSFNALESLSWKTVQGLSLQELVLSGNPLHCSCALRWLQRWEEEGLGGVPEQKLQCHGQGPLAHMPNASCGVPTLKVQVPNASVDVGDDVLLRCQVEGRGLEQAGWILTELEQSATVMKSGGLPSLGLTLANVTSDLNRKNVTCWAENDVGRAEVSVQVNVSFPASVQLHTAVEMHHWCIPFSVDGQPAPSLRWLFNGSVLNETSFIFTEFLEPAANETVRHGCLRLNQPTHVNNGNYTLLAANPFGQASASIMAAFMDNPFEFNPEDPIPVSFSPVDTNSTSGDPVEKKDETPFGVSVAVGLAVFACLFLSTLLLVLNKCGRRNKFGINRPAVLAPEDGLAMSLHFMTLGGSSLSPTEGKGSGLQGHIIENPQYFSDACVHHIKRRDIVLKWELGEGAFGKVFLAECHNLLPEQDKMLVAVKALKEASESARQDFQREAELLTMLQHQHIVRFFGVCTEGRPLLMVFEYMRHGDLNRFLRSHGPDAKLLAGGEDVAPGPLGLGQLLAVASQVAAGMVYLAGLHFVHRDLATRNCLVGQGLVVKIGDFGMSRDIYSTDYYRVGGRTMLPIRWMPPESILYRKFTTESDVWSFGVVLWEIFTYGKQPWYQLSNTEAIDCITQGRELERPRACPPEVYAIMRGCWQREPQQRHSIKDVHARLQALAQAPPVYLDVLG
Description: as §2

Sequence of FLT3 (Homo sapiens (Human), UniProt P36888) (P36888 27-993, species assumed): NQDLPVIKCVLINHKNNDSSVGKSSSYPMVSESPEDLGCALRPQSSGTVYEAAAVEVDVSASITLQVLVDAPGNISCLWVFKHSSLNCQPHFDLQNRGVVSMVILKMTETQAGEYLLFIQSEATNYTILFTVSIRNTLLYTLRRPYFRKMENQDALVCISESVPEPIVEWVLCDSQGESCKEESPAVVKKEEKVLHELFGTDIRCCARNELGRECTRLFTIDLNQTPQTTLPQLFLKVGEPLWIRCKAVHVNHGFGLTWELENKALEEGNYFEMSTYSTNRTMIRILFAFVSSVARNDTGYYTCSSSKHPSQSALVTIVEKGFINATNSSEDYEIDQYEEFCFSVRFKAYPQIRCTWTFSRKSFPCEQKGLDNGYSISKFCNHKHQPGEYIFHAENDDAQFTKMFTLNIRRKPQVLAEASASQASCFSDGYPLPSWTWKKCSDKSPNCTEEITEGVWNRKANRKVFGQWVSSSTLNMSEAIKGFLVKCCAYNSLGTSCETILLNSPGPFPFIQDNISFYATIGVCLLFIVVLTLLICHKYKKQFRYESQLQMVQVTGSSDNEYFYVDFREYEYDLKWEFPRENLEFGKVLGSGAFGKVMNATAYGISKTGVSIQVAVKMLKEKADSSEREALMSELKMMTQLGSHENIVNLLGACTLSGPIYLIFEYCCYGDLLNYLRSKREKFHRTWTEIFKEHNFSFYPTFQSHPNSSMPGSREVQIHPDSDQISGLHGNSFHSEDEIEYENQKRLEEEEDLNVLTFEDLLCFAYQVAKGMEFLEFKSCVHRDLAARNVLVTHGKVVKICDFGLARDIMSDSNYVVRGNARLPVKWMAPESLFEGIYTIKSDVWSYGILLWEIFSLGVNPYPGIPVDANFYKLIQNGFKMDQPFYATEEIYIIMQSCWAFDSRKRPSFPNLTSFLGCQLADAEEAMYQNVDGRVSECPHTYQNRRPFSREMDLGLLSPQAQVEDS

| Compound | IC50 (FLT3 [1]) | Selectivity FLT3/JH2 V617F (FLT3 [2]) | IC50 [3] | IC50 [4] | IC50 [5] | Selectivity TRKA/JH2 V617F (TRKA [6]) | IC50 (TRKA [7]) |
| --- | --- | --- | --- | --- | --- | --- | --- |
| COC(=O)N[C@@H]1CC[C@@H](n2c(=O)n(C)c3cnc4[nH]c(-c5ccc(C(=O)NCCCNc6ccccc6)c(F)c5)c(-c5ccc6c(cnn6C(C)C)c5)c4c32)C1 [Example 7, Methyl ((1R,3R)-3-(7-(3-fluoro-4-((3-(phenylamino)propyl)carbamoyl)phenyl)-8-(1-isopropyl-1H-indazol-5-yl)-3-methyl-2-oxo-3,6-dihydroimidazo[4,5-d]pyrrolo[2,3-b]pyridin-1(2H)-yl)cyclopentyl)carbamate] | > 2500 nM | ***** (selectivity of >5000-fold to ≤12500-fold) | > 800 nM | ≤ 10 nM | > 1000 nM | ***** (selectivity of >5000-fold to ≤12500-fold) | > 2500 nM |
| CCNC(=O)c1ccc(-c2[nH]c3ncc4c(c3c2-c2ccc3c(cnn3C(C)C)c2)n([C@@H]2CC[C@@H](NC(=O)OC)C2)c(=O)n4C)cc1OC [Example 18, Methyl ((1R,3R)-3-(7-(4-(ethylcarbamoyl)-3-methoxyphenyl)-8-(1-isopropyl-1H-indazol-5-yl)-3-methyl-2-oxo-3,6-dihydroimidazo[4,5-d]pyrrolo[2,3-b]pyridin-1(2H)-yl)cyclopentyl)carbamate] | 250 to 1250 nM | **** (selectivity of >1750-fold to ≤5000-fold) | ≤ 300 nM | ≤ 10 nM | > 1000 nM | ***** (selectivity of >5000-fold to ≤12500-fold) | 1250 to 2500 nM |
| COCCNC(=O)c1ccc(-c2[nH]c3ncc4c(c3c2-c2ccc3c(cnn3C(C)C)c2)n([C@@H]2CC[C@@H](NC(=O)OC)C2)c(=O)n4C)cc1 [Example 19, Methyl ((1R,3R)-3-(8-(1-isopropyl-1H-indazol-5-yl)-7-(4-((2-methoxyethyl)carbamoyl)phenyl)-3-methyl-2-oxo-3,6-dihydroimidazo[4,5-d]pyrrolo[2,3-b]pyridin-1(2H)-yl)cyclopentyl)carbamate] | 250 to 1250 nM | **** (selectivity of >1750-fold to ≤5000-fold) | ≤ 300 nM | ≤ 10 nM | > 1000 nM | ****** (selectivity of >12500-fold) | 1250 to 2500 nM |
| COC(=O)N[C@@H]1CC[C@@H](n2c(=O)n(C)c3cnc4[nH]c(-c5ccc(C(=O)N6CCOCC6)cc5)c(-c5ccc6c(cnn6C(C)C)c5)c4c32)C1 [Example 20, Methyl ((1R,3R)-3-(8-(1-isopropyl-1H-indazol-5-yl)-3-methyl-7-(4-(morpholine-4-carbonyl)phenyl)-2-oxo-3,6-dihydroimidazo[4,5-d]pyrrolo[2,3-b]pyridin-1(2H)-yl)cyclopentyl)carbamate] | 250 to 1250 nM | ***** (selectivity of >5000-fold to ≤12500-fold) | ≤ 300 nM | ≤ 10 nM | > 1000 nM | ***** (selectivity of >5000-fold to ≤12500-fold) | 250 to 1250 nM |
| COC(=O)N[C@@H]1CC[C@@H](n2c(=O)n(C)c3cnc4[nH]c(-c5ccc(C(=O)N(C)C)cc5)c(-c5ccc6c(cnn6C(C)C)c5)c4c32)C1 [Example 22, Methyl ((1R,3R)-3-(7-(4-(dimethylcarbamoyl)phenyl)-8-(1-isopropyl-1H-indazol-5-yl)-3-methyl-2-oxo-3,6-dihydroimidazo[4,5-d]pyrrolo[2,3-b]pyridin-1(2H)-yl)cyclopentyl)carbamate] | 250 to 1250 nM | ***** (selectivity of >5000-fold to ≤12500-fold) | ≤ 300 nM | ≤ 10 nM | > 1000 nM | ***** (selectivity of >5000-fold to ≤12500-fold) | 250 to 1250 nM |
| COC(=O)N[C@@H]1CC[C@@H](n2c(=O)n(C)c3cnc4[nH]c(-c5ccc(C(=O)N6CCC(F)(F)CC6)c(F)c5)c(-c5ccc6c(cnn6C(C)C)c5)c4c32)C1 [Example 24, Methyl ((1R,3R)-3-(7-(4-(4,4-difluoropiperidine-1-carbonyl)-3-fluorophenyl)-8-(1-isopropyl-1H-indazol-5-yl)-3-methyl-2-oxo-3,6-dihydroimidazo[4,5-d]pyrrolo[2,3-b]pyridin-1(2H)-yl)cyclopentyl)carbamate] | > 2500 nM | ****** (selectivity of >12500-fold) | 300 to 800 nM | ≤ 10 nM | > 1000 nM | ****** (selectivity of >12500-fold) | > 2500 nM |
